From patent US11617814B2, “Methods of treatment comprising administering polymer particles configured for intravascular delivery of pharmaceutical agents” (TERUMO CORPORATION, priority 2016, dated 2023) come the findings set out here.

Data set [1] is described as follows: Solubility of SN-38 in water, observed in the elution extract. The class given is physicochemical. Conditions: yellow precipitate formed in the extract solution. The procedure:
The kinetics of SN-38 elution from the preloaded particles is illustrated in FIG. 1. The theoretical amount of SN-38 tethered on the particles is 15 mg for 100 mg of particles assuming no loss of the drug during the preparation of the particles. Upon immersion in PBS, SN-38 was eluted slowly over a period of time. On day 8, there was approximately 3% of SN-38 eluted. The elution curve obtained is fairly close to a linear line over the period of 8 days with a steady daily release between 3-5% of loaded SN-38 indicating controlled release of SN-38 is achieved with the preloaded particles. The total amount of SN-38 eluted during the first 8 days was 34% of the theoretical amount.

The nature of data set [2]: In vivo elution: systemic concentration of SN-38 in plasma after embolization, LC/MS/MS. As to the method:
Blood samples were obtained to determine the systemic concentration of SN-38 before embolization as well as 20, 40, 60, 120 and 180 minutes post-embolization. An additional blood sample was collected at sacrifice, which was at day 6. Plasma was prepared by centrifugation and the samples were frozen at −80° C. until analysis.
Quantitation was done via liquid chromatography-tandem mass spectrometry (LC/MS/MS) using an Agilent 1260 Infinity HPLC system coupled with ABSciex 4000 Q Trap LC/MS/MS system. Chromatographic separation was performed using an Agilent Poroshell 120 C18 column (4.6 mm×50 mm, 2.7 μm) at 25° C. and mobile phases consisting of A: 0.1% formic acid in acetonitrile and B: 0.1% formic acid in water. At a flow rate of 1.0 mL/min, the chromatographic gradient was 27% buffer A from 0.0-0.3 min, 27-52% from 0.3-2.5 min, 52-80% from 2.5-2.6 min, 80% from 2.6-2.7 min, 80-27% from 2.7-2.8 min, 27% from 2.9-4.0 min. The plasma samples were precipitated with 3 fold excess (v/v) of acetonitrile containing 50 ppb of the internal standard, camptothecin. After being vortexed and centrifuged at 13,000 rpm at 4° C. for 10 minutes, 200 μL of the supernatant of each sample was diluted with 600 μL of 0.1% formic acid in water. Injection of 100 μL of the diluted sample was performed. The calibration curve was prepared by spiking blank plasma to a range from 2.5-500 ppb for SN-38. […]

A short description of data set [3]: In vivo elution: systemic concentration of oxaliplatin in plasma after embolization, LC/MS/MS. Also noted: species or system pig. The procedure:
Blood samples were obtained to determine the systemic concentration of oxaliplatin before embolization as well as 20, 40, 60, 120 and 180 minutes post-embolization. An additional blood sample was collected at sacrifice, which was at day 6 or day 7. Plasma was prepared by centrifugation and the samples were frozen at −80° C. until analysis.
Quantitation was done via LC/MS/MS using an Agilent 1260 Infinity HPLC system coupled with ABSciex 4000 Q Trap LC/MS/MS system. Chromatographic separation was performed using an Agilent Poroshell 120 C18 column (4.6 mm×50 mm, 2.7 μm) at 50° C. and mobile phase consisting of A: 0.1% formic acid in acetonitrile and B: 0.1% formic acid in water. At a flow rate of 500 μL/min, the chromatographic gradient was 0% buffer A from 0.0-2.5 min, 0-90% from 2.5-2.6 min, 90% from 2.6-4.1 min, 90-0% from 4.1-4.2 min, and 0% from 4.2-10.0 min. The divert valve was open from 1.4-2.7 min and 3.4-4.6 min. The plasma samples were purified by ultracentrifugation first and then solid phase extraction. Plasma sample, 500 μL, was loaded onto a 30K Nanosep Centrifuge Device and centrifuged to collect the plasma ultra-filtrate. The centrifugation was performed at 4° C., starting at 8,000 rcf for 30 mins, 9,000 rcf for 30 mins, and 10,000 rcf for 15 mins with an increment of 1,000 rcf every 15 mins until 13,000 rcf for 2 hrs and 15 mins. The collected plasma ultra-filtrate was diluted with 1:1 (v/v) ratio of acetonitrile containing 500 ppb of the internal standard, carboplatin. The mixture, 600 μL, was loaded onto a 1 mL HybridSPE-Phospholipid cartridge, which was placed in a 15 mL conical centrifuge tube and centrifuged at 4° C. at 1,000 rcf for 5 mins and then 4,000 rcf for 5 mins. The sample collected in the centrifuge tube was then transferred to an HPLC vial for analysis. Injection of 50 μL of the sample was performed. The calibration curve was prepared by spiking the blank plasma ultra-filtrate to a range from 5-2000 ppb. The systemic concentration of oxalipatin in plasma over time is illustrated in FIG. 3.

For the compound `CCc1c2c(nc3ccc(O)cc13)-c1cc3c(c(=O)n1C2)COC(=O)[C@]3(O)CC` [SN-38, 7-ethyl-10-hydroxy-camptothecin], the “solubility of SN-38 in water” value in data set [1] was “poor solubility”. In data set [2] (each time point: pre-embolization, 20, 40, 60, 120, 180 min post-embolization and day 6, calibration 2.5-500 ppb), the “systemic concentration of SN-38 in plasma” value is on record as “lower than the lower limit of quantitation”. Besides, the “time of highest systemic concentration of SN-38” value in data set [2] (post embolization, plasma) came to 3 h.

`O=C1[O][Pt]2([NH][C@@H]3CCCC[C@H]3[NH]2)[O]C1=O` [oxaliplatin]: in data set [3] (each time point: pre-embolization, 20, 40, 60, 120, 180 min post-embolization and day 6 or 7, plasma ultra-filtrate, calibration 5-2000 ppb), the “systemic concentration of oxaliplatin in plasma” value is reported as “lower than the lower limit of quantitation”. In addition, in data set [3] (one sample pig, day 6), the “systemic concentration of oxaliplatin at day 6” value was “close to pre-embolization”. For the same compound, the “time of highest systemic concentration of oxaliplatin” value in data set [3] (post embolization, one sample pig) stood at 3 h.
